# Results reported in patent publication US7138361B2, “Herbicidal heterocycles” (E. I. du Pont de Nemours and Company, priority 2000, dated 2006).
# How the values were obtained:
# Format in all cases: in vivo
# [1] = test system: Surinam grass (Brachiaria decumbens); assay: Test B postemergence; settings: 13 to 15 days
# Summary of the method: (§1)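 Preemergence: seeds planted and treated with test chemicals in non-phytotoxic solvent with surfactant; postemergence on plants 2–18 cm (1- to 4-leaf stage). Kept in greenhouse 13–15 days, then visually rated against controls on a 0 (no effect) to 100 (complete control) scale.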
# [2] = test system: barnyardgrass (Echinochloa crus-galli); assay: Test B postemergence; settings: 13 to 15 days
# Summary of the method: as §1
# [3] = test system: blackgrass (Alopecurus myosuroides); assay: Test B postemergence; settings: 13 to 15 days
# Summary of the method: as §1
# [4] = test system: cocklebur (Xanthium strumarium); assay: Test B postemergence; settings: 13 to 15 days
# Summary of the method: as §1
# [5] = test system: corn (Zea mays); assay: Test B postemergence; settings: 13 to 15 days
# Summary of the method: as §1
# [6] = test system: crabgrass (Digitaria sanguinalis); assay: Test B postemergence; settings: 13 to 15 days
# Summary of the method: as §1
# [7] = test system: giant foxtail (Setaria faberii); assay: Test B postemergence; settings: 13 to 15 days
# Summary of the method: as §1
# [8] = test system: lambsquarters (Chenopodium album); assay: Test B postemergence; settings: 13 to 15 days
# Summary of the method: as §1
# [9] = test system: morning glory (Ipomoea hederacea); assay: Test B postemergence; settings: 13 to 15 days
# Summary of the method: as §1
# [10] = test system: pigweed (Amaranthus retroflexus); assay: Test B postemergence; settings: 13 to 15 days
# Summary of the method: as §1
# [11] = test system: velvetleaf (Abutilon theophrasti); assay: Test B postemergence; settings: 13 to 15 days
# Summary of the method: as §1
# [12] = test system: wheat (Triticum aestivum); assay: Test B postemergence; settings: 13 to 15 days
# Summary of the method: as §1
# [13] = test system: wild oat (Avena fatua); assay: Test B postemergence; settings: 13 to 15 days
# Summary of the method: as §1
# [14] = test system: Surinam grass (Brachiaria decumbens); assay: Test B preemergence; settings: scale 0 to 100, 0 no effect, 100 complete control
# Summary of the method: as §1
# [15] = test system: barnyardgrass (Echinochloa crus-galli); assay: Test B preemergence; settings: scale 0 to 100, 0 no effect, 100 complete control
# Summary of the method: as §1
# [16] = test system: cocklebur (Xanthium strumarium); assay: Test B preemergence; settings: scale 0 to 100, 0 no effect, 100 complete control
# Summary of the method: as §1
# [17] = test system: corn (Zea mays); assay: Test B preemergence; settings: scale 0 to 100, 0 no effect, 100 complete control
# Summary of the method: as §1
# [18] = test system: crabgrass (Digitaria sanguinalis); assay: Test B preemergence; settings: scale 0 to 100, 0 no effect, 100 complete control
# Summary of the method: as §1
# [19] = test system: giant foxtail (Setaria faberii); assay: Test B preemergence; settings: scale 0 to 100, 0 no effect, 100 complete control
# Summary of the method: as §1
# [20] = test system: lambsquarters (Chenopodium album); assay: Test B preemergence; settings: scale 0 to 100, 0 no effect, 100 complete control
# Summary of the method: as §1
# [21] = test system: morning glory (Ipomoea hederacea); assay: Test B preemergence; settings: scale 0 to 100, 0 no effect, 100 complete control
# Summary of the method: as §1
# [22] = test system: pigweed (Amaranthus retroflexus); assay: Test B preemergence; settings: scale 0 to 100, 0 no effect, 100 complete control
# Summary of the method: as §1
# [23] = test system: rice (Oryza saliva); assay: Test B preemergence; settings: scale 0 to 100, 0 no effect, 100 complete control
# Summary of the method: as §1
# [24] = test system: velvetleaf (Abutilon theophrasti); assay: Test B preemergence; settings: scale 0 to 100, 0 no effect, 100 complete control
# Summary of the method: as §1
# [25] = test system: barnyardgrass (Echinochloa crus-galli); assay: Test B flooded paddy test; settings: Rate 1000 g/ha, scale of 0 to 100 where 0 is no effect and 100 is complete control, visually evaluated after 13 to 15 days
# Summary of the method: (§2)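 Rice, smallflower flatsedge, duck salad and barnyardgrass grown to 2-leaf stage in flooded paddy and treated with test chemicals. Plants kept in greenhouse 13 to 15 days, then visually rated against controls. Scale 0 (no effect) to 100 (complete control).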
# [26] = test system: duck salad (Heteranthera limosa); assay: Test B flooded paddy test; settings: Rate 1000 g/ha, scale of 0 to 100 where 0 is no effect and 100 is complete control, visually evaluated after 13 to 15 days
# Summary of the method: as §2
# [27] = test system: rice (Oryza saliva); assay: Test B flooded paddy test; settings: Rate 1000 g/ha, scale of 0 to 100 where 0 is no effect and 100 is complete control, visually evaluated after 13 to 15 days
# Summary of the method: as §2
# [28] = test system: smallflower flatsedge (Cyperus difformis); assay: Test B flooded paddy test; settings: Rate 1000 g/ha, scale of 0 to 100 where 0 is no effect and 100 is complete control, visually evaluated after 13 to 15 days
# Summary of the method: as §2
# [29] = test system: barnyardgrass (Echinochloa crus-galli); assay: Test C flooded paddy test
# Summary of the method: (§3)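 Rice and three paddy weeds were grown to the 2-leaf stage under flooded conditions, then treated and kept in a greenhouse for 12–14 days. Response was rated visually against untreated controls on a 0–100 scale, where 100 is complete control.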
# [30] = test system: duck salad (Heteranthera limosa); assay: Test C flooded paddy test
# Summary of the method: as §3
# [31] = test system: rice (Oryza saliva); assay: Test C flooded paddy test
# Summary of the method: as §3
# [32] = test system: smallflower flatsedge (Cyperus difformis); assay: Test C flooded paddy test; settings: for Flatsedge plant response rating: Flooded Paddy, scale 0 to 100, 0 no effect, 100 complete control; for Plant response rating, Flatsedge: flooded paddy test, scale 0 to 100 (0 no effect, 100 complete control)
# Summary of the method: as §3
# [33] = Rate 125 g/ha, scale 0 (no effect) to 100 (complete control)
# [34] = Rate 500 g/ha, scale 0 to 100, 0 is no effect, 100 is complete control
# [35] = Flooded Paddy, Rate 500 g/ha, scale 0 to 100
# [36] = Flooded Paddy, Rate 250 g/ha, scale 0 to 100, 0 no effect, 100 complete control
# [37] = flooded paddy test, Rate 62 g/ha, scale 0 to 100 (0 no effect, 100 complete control)
# [38] = flooded paddy test, Rate 125 g/ha, scale 0 to 100 (0 no effect, 100 complete control)
structure (smiles),measurement,setting,value
Cc1ccn(C2SCN(c3cccc(C(F)(F)F)c3)C2=O)n1 (centres unmarked) [Compound 19],"Plant response rating, Surinam grass",[1]; [33],0
same,"Plant response rating, Surinam grass",[1]; [34],10
same,"Plant response rating, Barnyardgrass",[2]; [33],0
same,"Plant response rating, Barnyardgrass",[2]; [34],0
same,"Plant response rating, Blackgrass",[3]; [33],0
same,"Plant response rating, Blackgrass",[3]; [34],0
same,"Plant response rating, Cocklebur",[4]; [33],20
same,"Plant response rating, Cocklebur",[4]; [34],20
same,"Plant response rating, Corn",[5]; [33],0
same,"Plant response rating, Corn",[5]; [34],0
same,"Plant response rating, Crabgrass",[6]; [33],0
same,"Plant response rating, Crabgrass",[6]; [34],20
same,"Plant response rating, Foxtail, Giant",[7]; [33],0
same,"Plant response rating, Foxtail, Giant",[7]; [34],0
same,"Plant response rating, Lambsquarters",[8]; [33],10
same,"Plant response rating, Lambsquarters",[8]; [34],70
same,"Plant response rating, Morningglory",[9]; [33],20
same,"Plant response rating, Morningglory",[9]; [34],30
same,"Plant response rating, Pigweed",[10]; [33],0
same,"Plant response rating, Pigweed",[10]; [34],0
same,"Plant response rating, Velvetleaf",[11]; [33],10
same,"Plant response rating, Velvetleaf",[11]; [34],20
same,"Plant response rating, Wheat",[12]; [33],0
same,"Plant response rating, Wheat",[12]; [34],0
same,"Plant response rating, Wild Oat",[13]; [33],0
same,"Plant response rating, Wild Oat",[13]; [34],0
same,"Plant response rating, Surinam grass","[14]; Preemergence, Rate 500 g/ha",20
same,"Plant response rating, Surinam grass","[14]; preemergence, Rate 125 g/ha",0
same,"Plant response rating, Barnyardgrass","[15]; Preemergence, Rate 500 g/ha",0
same,"Plant response rating, Barnyardgrass","[15]; preemergence, Rate 125 g/ha",0
same,"Plant response rating, Cocklebur","[16]; Preemergence, Rate 500 g/ha",0
same,"Plant response rating, Cocklebur","[16]; preemergence, Rate 125 g/ha",0
same,"Plant response rating, Corn","[17]; Preemergence, Rate 500 g/ha",0
same,"Plant response rating, Corn","[17]; preemergence, Rate 125 g/ha",0
same,"Plant response rating, Crabgrass","[18]; Preemergence, Rate 500 g/ha",0
same,"Plant response rating, Crabgrass","[18]; preemergence, Rate 125 g/ha",0
same,"Plant response rating, Foxtail, Giant","[19]; Preemergence, Rate 500 g/ha",0
same,"Plant response rating, Foxtail, Giant","[19]; preemergence, Rate 125 g/ha",0
same,"Plant response rating, Lambsquarters","[20]; Preemergence, Rate 500 g/ha",60
same,"Plant response rating, Lambsquarters","[20]; preemergence, Rate 125 g/ha",0
same,"Plant response rating, Morningglory","[21]; Preemergence, Rate 500 g/ha",0
same,"Plant response rating, Morningglory","[21]; preemergence, Rate 125 g/ha",0
same,"Plant response rating, Pigweed","[22]; Preemergence, Rate 500 g/ha",0
same,"Plant response rating, Pigweed","[22]; preemergence, Rate 125 g/ha",0
same,"Plant response rating, Rice","[23]; Preemergence, Rate 500 g/ha",0
same,"Plant response rating, Rice","[23]; preemergence, Rate 125 g/ha",0
same,"Plant response rating, Velvetleaf","[24]; Preemergence, Rate 500 g/ha",0
same,"Plant response rating, Velvetleaf","[24]; preemergence, Rate 125 g/ha",0
same,"Plant response rating, Barnyardgrass",[25],60
same,"Plant response rating, Ducksalad",[26],80
same,"Plant response rating, Rice",[27],0
same,"Plant response rating, Flatsedge",[28],90
same,"Plant response rating, Barnyardgrass",[29]; [35],0
same,Barnyardgrass plant response rating,[29]; [36],0
same,"Plant response rating, Barnyardgrass",[29]; [37],0
same,"Plant response rating, Barnyardgrass",[29]; [38],0
same,"Plant response rating, Ducksalad",[30]; [35],0
same,Ducksalad plant response rating,[30]; [36],0
same,"Plant response rating, Ducksalad",[30]; [37],0
same,"Plant response rating, Ducksalad",[30]; [38],0
same,"Plant response rating, Rice",[31]; [35],0
same,Rice plant response rating,[31]; [36],0
same,"Plant response rating, Rice",[31]; [37],0
same,"Plant response rating, Rice",[31]; [38],0
same,Flatsedge plant response rating,[32]; Rate 250 g/ha,0
same,Flatsedge plant response rating,[32]; Rate 500 g/ha,30
same,"Plant response rating, Flatsedge",[32]; Rate 62 g/ha,0
same,"Plant response rating, Flatsedge",[32]; Rate 125 g/ha,0
